Experimental data from article PMC6018403 (Frontiers in Pharmacology, 2018).

How the values were obtained:
P-glycoprotein (P-gp) = target: T1, P-glycoprotein (P-gp) (Homo sapiens, UniProt P08183); assay: P-gp inhibitor and inducer experiments on Caco-2 cell monolayer; format: in vitro ADME; settings: added together with BER 5 μM; verapamil 5 μM; rifampicin 5, 20, 50 μM
T1 construct: host or cells: Caco-2 (human colon adenocarcinoma) monolayers, passages 24-35
Description: The final concentration of GQD, GQD−GC, and Huang-Lian water extracts were 32, 28, and 6 μg/mL, respectively. […]
containing glucose (25 mM) and HEPES (10 mM). The final concentration of berberine was 5 µM. The final concentration of DMSO was below 1% (v/v). […]
inducer of Caco-2 cells, respectively. For the inhibitor experiments, the Caco-2 cells were cultivated in DMEM until the 21st day. After removal of the medium, the cells were incubated for 30 minutes with HBSS containing 5 µM of verapamil. For the inducer experiments, the cells were cultivated in DMEM until the 18th day, and then […]
was removed on the 21st day, and the cells were then incubated for 30 min with HBSS.
Berberine and glycyrrhizic acid were added to the system following HBSS incubation.
For all bidirectional transport assays, samples (300 µL) were collected after 30, 60, 90, […]
with an equal volume of HBSS. The samples were freeze-dried and then dissolved in 300 µL of methanol. The solutions were filtered through 0.22-µm membranes before […]
3. Inhibitor and inducer experiments […]
respectively. For the inhibition experiments, Caco-2 cells were cultivated in DMEM until the 21st day. After removal of the medium, the cells were incubated for 30 minutes with HBSS containing verapamil (5 µM). For induction experiments, the cells were cultivated in DMEM until the 18th day, and then cultivated in DMEM […]
The medium was removed on the 21st day, and the cells were then incubated for 30 min with HBSS. Berberine and glycyrrhizic acid were added to the system following HBSS incubation.

db/db mice = assay: Evaluation of anti-diabetic effects in db/db mice; format: in vivo; settings: P < 0.05, metformin 100 mg/kg/d
Description: Eight-week-old male db/db mice (30–35 g) were used, and the details were described in Supplemental Data. The mice were randomly divided into eight groups. Mice were orally administered with metformin (100 mg/kg/d, n = 6), berberine (50 mg/kg/d, n = 6), glycyrrhizic acid (80 mg/kg/d, n = 6), berberine (50 mg/kg/d) combined with low-dose of glycyrrhizic acid (50 mg/kg/d, n = 6), berberine (50 mg/kg/d) combined with high-dose of glycyrrhizic acid (80 mg/kg/d, n = 6), berberine (50 mg/kg/d) combined with Gan-Cao (2.2 g/kg/d, n = 7), and GQD (18.2 g/kg/d, n = 7) for 4 weeks. For the control group, the […] were administered with an equal volume of water. On day 28, after fasted for 12 h, retro-orbital blood samples were collected, stand for 1 h, and then centrifuged (6,000 rpm, 4°C) for 20 min to obtain serum. Biochemical indicators such as blood glucose and insulin were determined on a Mindray BS-800 analyzer (Mindray Bio-Medical Electronics Co.).
Herbal materials and extracts.
The four component herbs, Puerariae Lobatae Radix (Ge-Gen, GG), Scutellariae Radix (Huang-Qin, HQ), Coptidis Rhizoma (Huang-Lian, HL), and Glycyrrhizae Radix et Rhizoma Praeparata cum Melle (Gan-Cao, GC) were purchased from Tianheng Pharmacy. GQD was prepared by decocting the four component herbs […]
of water for three times (1.5 h, 1.5 h, 0.5 h) to obtain the extracts, followed by a pre-extraction of Ge-Gen using 200 mL of water for 0.5 h. The decoctions were combined, filtered, and concentrated in vacuum at 50 °C. GQD-GC was prepared using the same procedure, except that Gan-Cao was removed from the formula. Final concentration of the GQD-GC extract was equivalent to 1.0 g of the crude drugs per mL. For single herb extracts, the herbs were decocted in 8-fold volume of water for three times (1.5 h, 1.5 h, 0.5 h) and then concentrated. […]
For anti-diabetic study, Eight-week-old male db/db mice (30–35 g) were purchased from Card Vince Laboratory animal Co., Ltd. The mice were bred in a cage (318 × 202 × 135 mm) in a breeding room at 25 °C, 60 ± 5% humidity, and a 12-h dark-light […]
On day 28, db/db mice were fasted for 12 h, and blood was collected and centrifuged to obtain serum for insulin and biochemical tests. After that, 150 µL of plasma was prepared by adding 150 µL of internal standard solution, 150 µL of methanol, and 300 µL of acetonitrile. The processing method was consistent with sample preparation for […]
3.1. Optimization of chromatographic separation
Different solvents (67% methanol, and 100% methanol) were compared to effectively extract both hydrophilic and hydrophobic compounds of GQD. […]
better extraction recovery for most compounds. […]

T1 sequence (P08183 whole entry): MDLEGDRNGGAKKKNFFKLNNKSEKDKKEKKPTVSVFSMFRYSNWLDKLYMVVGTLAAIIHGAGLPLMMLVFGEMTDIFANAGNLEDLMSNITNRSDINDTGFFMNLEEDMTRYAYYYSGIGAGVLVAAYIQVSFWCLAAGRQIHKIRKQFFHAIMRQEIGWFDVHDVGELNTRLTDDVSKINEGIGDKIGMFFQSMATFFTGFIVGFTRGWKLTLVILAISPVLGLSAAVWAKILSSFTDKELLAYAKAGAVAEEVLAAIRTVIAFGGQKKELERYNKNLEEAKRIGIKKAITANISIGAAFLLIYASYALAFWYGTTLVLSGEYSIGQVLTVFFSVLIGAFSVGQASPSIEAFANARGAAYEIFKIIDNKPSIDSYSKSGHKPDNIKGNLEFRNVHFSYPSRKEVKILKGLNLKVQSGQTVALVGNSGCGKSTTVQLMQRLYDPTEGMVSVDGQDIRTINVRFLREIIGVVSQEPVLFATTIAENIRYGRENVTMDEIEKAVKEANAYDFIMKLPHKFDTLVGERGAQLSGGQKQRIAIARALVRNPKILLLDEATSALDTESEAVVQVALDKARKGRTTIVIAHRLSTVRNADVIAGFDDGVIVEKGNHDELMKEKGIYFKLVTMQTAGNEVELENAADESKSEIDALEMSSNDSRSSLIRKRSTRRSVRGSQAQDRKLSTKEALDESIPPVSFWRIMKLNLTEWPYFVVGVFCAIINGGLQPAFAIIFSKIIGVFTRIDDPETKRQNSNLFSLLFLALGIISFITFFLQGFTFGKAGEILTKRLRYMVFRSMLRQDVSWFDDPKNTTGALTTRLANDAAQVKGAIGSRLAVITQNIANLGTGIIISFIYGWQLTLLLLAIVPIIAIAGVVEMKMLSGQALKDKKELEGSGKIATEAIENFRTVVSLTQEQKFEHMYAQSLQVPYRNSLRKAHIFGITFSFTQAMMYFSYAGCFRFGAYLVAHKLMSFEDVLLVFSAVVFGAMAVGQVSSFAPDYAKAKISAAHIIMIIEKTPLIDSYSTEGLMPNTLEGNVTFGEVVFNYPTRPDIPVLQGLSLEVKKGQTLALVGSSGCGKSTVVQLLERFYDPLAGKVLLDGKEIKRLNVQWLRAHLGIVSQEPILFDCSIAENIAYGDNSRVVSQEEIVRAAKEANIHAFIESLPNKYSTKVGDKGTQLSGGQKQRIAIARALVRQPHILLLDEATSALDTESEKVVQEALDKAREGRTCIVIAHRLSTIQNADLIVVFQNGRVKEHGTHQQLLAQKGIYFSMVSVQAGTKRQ

Q: Which “effect on the efflux of BER” value (P-glycoprotein (P-gp)) does the source give for `CO[C@H]1/C=C/O[C@@]2(C)Oc3c(C)c(O)c4c(O)c(c(/C=N/N5CCN(C)CC5)c(O)c4c3C2=O)NC(=O)/C(C)=C\C=C\[C@H](C)[C@H](O)[C@@H](C)[C@@H](O)[C@@H](C)[C@H](OC(C)=O)[C@@H]1C` [rifampicin, reference compound] here?
A: increased

Q: And the “effect on the influx of BER” value (P-glycoprotein (P-gp))?
A: decreased

Q: How did the 4-week body weight (db/db mice) turn out when `CN(C)C(=N)N=C(N)N` [Metformin, metformin, reference compound] was run?
A: significant decrease
